Measurements reported in US8846704B2, “Thiopyrimidine-based compounds and uses thereof” (YM Biosciences Austraila Pty Ltd, priority 2007, dated 2014).

Tests used:
[1] = biological target: T1, BaF3 TELJAK2 cells (BafT_J2) (Homo sapiens, UniProt O60674); assay: Cellular screening, BaF3 TEL:JAK2 cells, Alamar Blue; format: cell-based; conditions: 40 hr, read-out: BafT_J2 IC50_nM
T1 construct: fused on or other part: TEL (ETV6) N-terminal part, coding nucleotides 1-487, serves as the oligomerising partner; It is fused through a Sal I site to the JAK2 kinase domain and expressed from pTRE2 in BaF3 cells bearing pTET-off; P41212 (Transcription factor ETV6)
Outline: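 Tet-off BaF3 cells carrying a TEL (nt 1-487)–JAK2 kinase-domain fusion, grown factor-independently in DMEM with 10% Tet-approved FBS without WEHI 3B medium. Compounds were diluted to 20 μM in screening plates, and cells (50,000–200,000 cell/mL at 1.1×) were incubated 40 hr at 37 °C, 5% CO2. Alamar Blue was then added for 4-6 hours; read at 544 nm.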

[2] = biological target: T2, human JAK3 (Homo sapiens, UniProt P52333); assay: Alphascreen tyrosine kinase enzyme assay, JAK3 kinase domain; format: biochemical; conditions: read-out: JAK3 IC50_nM
T2 construct: The kinase domain of human JAK3 was amplified; GST (N); made in house; host or cells: Sf9 insect cells (baculovirus)
Outline: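 GST-affinity-purified human JAK3 kinase domain (baculovirus/Sf9) was pre-incubated 20 min with compound ([…]) in HEPES pH 7.5 buffer with MgCl2, vanadate and Tween 20. Biotinylated peptide substrate ([…]) and ATP were then added; phosphotyrosine was detected by AlphaScreen PY100 acceptor and streptavidin donor beads after 2–3 h.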

[3] = test system: BaF3 wild-type cells; assay: Cellular screening, BaF3 wild-type cells, Alamar Blue; format: cell-based; conditions: Mus musculus, 40 hr, read-out: BAF3wt IC50_nM
Outline: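 Cells were cultured in DMEM with 10% FCS and 10% WEHI 3B conditioned medium, and suspensions were prepared at 1.1× final (50,000–200,000 cells/mL). Compounds from 20 μM dilution plates were added at 10× final and incubated for 40 hr at 37° C, 5% CO2. Alamar Blue was then added for 4–6 hours and read at 544 nm.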

T1 sequence (O60674 whole entry, change not shown, the tested form may be a part): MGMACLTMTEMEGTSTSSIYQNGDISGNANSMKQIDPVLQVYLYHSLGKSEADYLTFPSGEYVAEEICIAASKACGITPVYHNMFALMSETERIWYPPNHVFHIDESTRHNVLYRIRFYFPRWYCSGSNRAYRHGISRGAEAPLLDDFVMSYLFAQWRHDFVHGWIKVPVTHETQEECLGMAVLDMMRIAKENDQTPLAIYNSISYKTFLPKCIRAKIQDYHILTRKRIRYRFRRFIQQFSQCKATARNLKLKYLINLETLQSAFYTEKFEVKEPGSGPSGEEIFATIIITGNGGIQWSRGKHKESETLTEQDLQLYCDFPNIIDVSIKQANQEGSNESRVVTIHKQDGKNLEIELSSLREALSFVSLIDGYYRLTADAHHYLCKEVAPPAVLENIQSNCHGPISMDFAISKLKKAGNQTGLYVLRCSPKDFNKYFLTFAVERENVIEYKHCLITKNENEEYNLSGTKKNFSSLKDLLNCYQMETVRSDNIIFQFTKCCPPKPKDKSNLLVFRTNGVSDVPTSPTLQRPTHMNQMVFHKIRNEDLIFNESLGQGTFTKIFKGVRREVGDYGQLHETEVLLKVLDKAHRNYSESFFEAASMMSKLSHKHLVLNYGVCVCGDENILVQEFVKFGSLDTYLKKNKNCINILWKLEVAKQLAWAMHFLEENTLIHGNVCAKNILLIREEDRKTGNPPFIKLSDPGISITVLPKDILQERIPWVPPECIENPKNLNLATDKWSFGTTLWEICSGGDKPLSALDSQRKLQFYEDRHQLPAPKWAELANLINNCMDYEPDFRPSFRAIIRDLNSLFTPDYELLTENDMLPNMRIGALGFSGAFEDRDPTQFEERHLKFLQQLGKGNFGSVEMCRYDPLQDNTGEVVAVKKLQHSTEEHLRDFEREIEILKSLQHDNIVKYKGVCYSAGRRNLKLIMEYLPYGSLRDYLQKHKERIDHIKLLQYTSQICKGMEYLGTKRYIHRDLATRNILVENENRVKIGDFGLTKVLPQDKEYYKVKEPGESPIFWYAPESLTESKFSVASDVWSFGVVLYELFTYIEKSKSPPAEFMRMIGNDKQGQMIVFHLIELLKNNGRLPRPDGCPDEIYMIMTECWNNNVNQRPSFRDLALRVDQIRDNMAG
T2 sequence (P52333 822-1111 limits assumed): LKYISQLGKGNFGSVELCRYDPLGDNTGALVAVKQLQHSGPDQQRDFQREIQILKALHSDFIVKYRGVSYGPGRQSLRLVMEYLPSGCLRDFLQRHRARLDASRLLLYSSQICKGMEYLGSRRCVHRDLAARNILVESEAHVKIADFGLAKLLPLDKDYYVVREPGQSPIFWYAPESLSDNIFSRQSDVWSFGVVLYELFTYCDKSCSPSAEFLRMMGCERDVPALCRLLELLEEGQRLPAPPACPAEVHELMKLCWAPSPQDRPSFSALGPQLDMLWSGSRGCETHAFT

SMILES | GI50 [1] [µM] | IC50 [2] [µM] | IC50 [3] [µM]
C=CC(=O)Nc1cccc(Nc2nccc(SC)n2)c1 [Compound 7, N-(3-(4-(methylthio)pyrimidin-2-ylao)phenyl)acrylamide] | < 20 | < 0.1 | < 20
N#CCc1ccc(Sc2ccnc(Nc3ccc(N4CCOCC4)cc3)n2)cc1 [Compound 210, 2-(4-(2-(4-morpholinophenylao)pyrimidin-4-ylthio)phenyl)acetonitrile] | > 20 | < 0.5 | > 20
Cc1cnc(Nc2ccc(N3CCOCC3)cc2)nc1Sc1ccc(CO)cc1 [Compound 220, (4-(5-methyl-2-(4-morpholinophenylao)pyrimidin-4-ylthio)phenyl)methanol] | < 5 | < 0.1 | < 5
Cc1cnc(Nc2ccc(N3CCOCC3)cc2)nc1Sc1ccc(N2C(=O)COCC2=O)cc1 [Compound 190, 4-(4-(5-methyl-2-(4-morpholinophenylao)pyrimidin-4-ylthio)phenyl)morpholine-3,5-dione] | > 20 | < 0.1 | > 20
N#Cc1c(N)ncn1Cc1ccc(Sc2ccnc(Nc3ccc(N4CCOCC4)cc3)n2)cc1 [Compound 203, 4-ao-1-(4-(2-(4-morpholinophenylao)pyrimidin-4-ylthio)benzyl)-1H-imidazole-5-carbonitrile] | < 1 | < 0.5 | < 1
Cc1cnc(Nc2ccc(N3CCOCC3)cc2)nc1Sc1ccc(C(=O)N2CCCC2)cc1 [Compound 224, (4-(5-methyl-2-(4-morpholinophenylao)pyrimidin-4-ylthio)phenyl)(pyrrolidin-1-yl)methanone] | > 20 | < 0.5 | < 20
N#Cc1ncn(Cc2ccc(Sc3ccnc(Nc4ccc(N5CCOCC5)cc4)n3)cc2)c1N [Compound 202, 5-ao-1-(4-(2-(4-morpholinophenylao)pyrimidin-4-ylthio)benzyl)-1H-imidazole-4-carbonitrile] | < 5 | < 0.5 | < 20
Cc1cnc(Nc2ccc(N3CCOCC3)cc2)nc1Sc1ccc(C(C#N)N2CCN(C)CC2)cc1 (stereo not shown) [Compound 225, 2-(4-(5-methyl-2-(4-morpholinophenylao)pyrimidin-4-ylthio)phenyl)-2-(4-methylpiperazin-1-yl)acetonitrile] | < 5 | < 0.5 | < 5
Cc1cnc(Nc2ccc(N3CCOCC3)cc2)nc1Sc1ccc(NC(=O)CO)cc1 [Compound 229, 2-hydroxy-N-(4-(5-methyl-2-(4-morpholinophenylao)pyrimidin-4-ylthio)phenyl)acetamide] | < 20 | < 0.5 | < 20
Cc1cnc(Nc2ccc(N3CCOCC3)cc2)nc1Sc1ccc(NC2CCOC2=O)cc1 (stereo not shown) [Compound 228, 3-(4-(5-methyl-2-(4-morpholinophenylao)pyrimidin-4-ylthio)phenylao)dihydrofuran-2(3H)-one] | > 20 | < 0.1 | > 20
Cc1cnc(Nc2cccc(S)c2)nc1Sc1ccc(NC(=O)CCl)cc1 [Compound 195, 2-chloro-N-(4-(2-(3-mercaptophenylao)-5-methylpyrimidin-4-ylthio)phenyl)acetamide] | > 20 | < 0.1 | > 20
Cc1cnc(Nc2ccc(N3CCOCC3)cc2)nc1Sc1cccc(CO)c1 [Compound 212, (3-(5-methyl-2-(4-morpholinophenylao)pyrimidin-4-ylthio)phenyl)methanol] | > 20 | < 0.5 | > 20
Cc1cnc(Nc2ccc(N3CCOCC3)cc2)nc1Sc1ccc(CC#N)cc1 [Compound 222, 2-(4-(5-methyl-2-(4-morpholinophenylao)pyrimidin-4-ylthio)phenyl)acetonitrile] | > 20 | < 0.5 | > 20
Cc1cnc(Nc2ccc(N3CCOCC3)cc2)nc1Sc1ccc(C=O)cc1 [Compound 219, 4-(5-methyl-2-(4-morpholinophenylao)pyrimidin-4-ylthio)benzaldehyde] | < 5 | < 0.5 | < 5
Cc1cnc(Nc2cccc(NS(C)(=O)=O)c2)nc1Sc1ccc(CO)cc1 [Compound 226, N-(3-(4-(4-(hydroxymethyl)phenylthio)-5-methylpyrimidin-2-ylao)phenyl)methanesulfonamide] | < 5 | < 0.5 | 
Cc1cnc(Nc2ccc(N3CCOCC3)cc2)nc1Sc1ccc(N2CCSCC2=O)cc1 [Compound 197, 4-(4-(5-methyl-2-(4-morpholinophenylao)pyrimidin-4-ylthio)phenyl)thiomorpholin-3-one] | > 20 | < 0.1 | > 20
Cc1cnc(Nc2ccc(N3CCOCC3)cc2)nc1Sc1ccc(C(C#N)N2CCOCC2)cc1 (stereo not shown) [Compound 223, 2-(4-(5-methyl-2-(4-morpholinophenylao)pyrimidin-4-ylthio)phenyl)-2-morpholinoacetonitrile] | < 5 | < 0.5 | < 5
CON(C)C(=O)c1ccc(Sc2nc(Nc3ccc(N4CCOCC4)cc3)ncc2C)cc1 [Compound 218, N-methoxy-N-methyl-4-(5-methyl-2-(4-morpholinophenylao)pyrimidin-4-ylthio)benzamide] | > 20 | < 0.5 | > 20
NC(=O)c1ccc(Sc2ccnc(Nc3ccc(N4CCOCC4)cc3)n2)cc1 [Compound 207, 4-(2-(4-morpholinophenylao)pyrimidin-4-ylthio)benzamide] | > 20 | < 0.5 | 
c1cc(Sc2ccc(Cn3cncn3)cc2)nc(Nc2ccc(N3CCOCC3)cc2)n1 [Compound 204, 4-(4-((1H-1,2,4-triazol-1-yl)methyl)phenylthio)-N-(4-morpholinophenyl)pyrimidin-2-ae] | < 5 | < 0.5 | < 20
N#Cc1c(N)ncn1Cc1cccc(Sc2ccnc(Nc3ccc(N4CCOCC4)cc3)n2)c1 [Compound 199, 4-ao-1-(3-(2-(4-morpholinophenylao)pyrimidin-4-ylthio)benzyl)-1H-imiazole-5-carbonitrile] | < 5 | < 0.5 | < 20
Cc1cnc(Nc2ccc(O)cc2)nc1Sc1ccc(N)cc1 [Compound 191, 4-(4-(4-aophenylthio)-5-methylpyrimidin-2-ylao)phenol] | < 5 | < 0.5 | < 5
